From patent US11046694B2, “Compounds and methods for treating bacterial infections” (Entasis Therapeutics, Inc., priority 2018, dated 2021)
Converted amounts (≈) assume the structure as drawn. Counter-ions that a name gives are not always drawn.

Tests used:
E. coli (ATCC25922) = assay: MIC against E. coli; conditions: Escherichia coli, ATCC25922, read-out: E. coli MIC (ATCC25922) (mg/L)
P. aeruginosa WT (PAO1) = assay: MIC, CLSI broth microdilution, P. aeruginosa; type: cell-based; conditions: Pseudomonas aeruginosa, PAO1; CLSI broth microdilution; read-out: P. aeruginosa WT (PAO1) MIC
A. baumannii (ARC3495) = assay: MIC against A. baumannii; conditions: Acinetobacter baumannii, read-out: A. baumannii MIC (ARC3495) (mg/L)
[1] = system: K. pneumoniae (ATCC700603); assay: MIC against K. pneumoniae; conditions: Klebsiella pneumoniae, ATCC700603, read-out: K. pneumoniae MIC (ATCC700603)
P. aeruginosa PBP1a = P. aeruginosa PBP1a (Pseudomonas aeruginosa, UniProt Q07806); type: biochemical; conditions: P. aeruginosa PBP1a 60 nM, BOCILLIN FL 30 nM, pH 7.0
P. aeruginosa PBP3 = P. aeruginosa PBP3 (Pseudomonas aeruginosa, UniProt G3XD46); type: biochemical; conditions: P. aeruginosa PBP3 60 nM, BOCILLIN FL 30 nM, pH 7.0
Chain of P. aeruginosa PBP3 (G3XD46 whole entry): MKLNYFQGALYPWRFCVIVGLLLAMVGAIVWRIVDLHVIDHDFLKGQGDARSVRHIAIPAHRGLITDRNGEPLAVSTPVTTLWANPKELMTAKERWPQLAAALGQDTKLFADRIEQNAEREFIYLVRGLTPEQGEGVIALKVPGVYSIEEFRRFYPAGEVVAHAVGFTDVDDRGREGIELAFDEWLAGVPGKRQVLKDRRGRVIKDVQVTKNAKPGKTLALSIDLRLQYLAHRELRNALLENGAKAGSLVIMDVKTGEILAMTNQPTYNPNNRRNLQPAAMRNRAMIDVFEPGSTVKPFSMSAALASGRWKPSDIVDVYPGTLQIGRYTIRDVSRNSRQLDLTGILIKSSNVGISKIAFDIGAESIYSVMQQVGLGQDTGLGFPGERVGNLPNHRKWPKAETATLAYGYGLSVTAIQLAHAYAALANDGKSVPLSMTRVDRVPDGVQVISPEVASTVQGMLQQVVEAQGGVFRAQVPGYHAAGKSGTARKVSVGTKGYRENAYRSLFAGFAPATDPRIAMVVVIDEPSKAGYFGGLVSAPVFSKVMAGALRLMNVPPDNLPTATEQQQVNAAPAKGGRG

Chain of P. aeruginosa PBP1a (Q07806 whole entry): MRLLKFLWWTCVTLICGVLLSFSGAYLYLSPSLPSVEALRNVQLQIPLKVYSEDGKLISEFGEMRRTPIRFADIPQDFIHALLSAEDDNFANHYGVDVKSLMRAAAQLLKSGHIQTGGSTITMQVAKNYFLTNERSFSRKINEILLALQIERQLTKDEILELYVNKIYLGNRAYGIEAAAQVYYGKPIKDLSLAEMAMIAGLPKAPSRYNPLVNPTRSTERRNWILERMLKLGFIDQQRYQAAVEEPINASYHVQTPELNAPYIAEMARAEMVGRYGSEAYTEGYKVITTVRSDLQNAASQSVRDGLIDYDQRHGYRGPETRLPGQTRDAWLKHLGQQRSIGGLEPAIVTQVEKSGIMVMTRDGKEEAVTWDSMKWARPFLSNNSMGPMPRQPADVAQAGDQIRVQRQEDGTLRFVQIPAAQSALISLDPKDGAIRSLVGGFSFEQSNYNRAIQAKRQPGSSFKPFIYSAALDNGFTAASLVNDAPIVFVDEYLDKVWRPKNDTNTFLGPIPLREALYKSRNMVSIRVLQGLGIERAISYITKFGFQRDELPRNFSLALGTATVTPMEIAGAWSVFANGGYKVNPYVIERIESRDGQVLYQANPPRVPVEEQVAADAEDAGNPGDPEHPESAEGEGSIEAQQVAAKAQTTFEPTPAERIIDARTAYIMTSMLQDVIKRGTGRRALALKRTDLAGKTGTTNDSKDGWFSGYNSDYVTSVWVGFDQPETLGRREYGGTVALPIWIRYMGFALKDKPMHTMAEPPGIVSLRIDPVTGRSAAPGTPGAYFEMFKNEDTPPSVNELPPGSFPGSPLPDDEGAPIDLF

Row | MIC (E. coli (ATCC25922)) [mg/L] | MIC (P. aeruginosa WT (PAO1)) [µg/mL] | MIC (A. baumannii (ARC3495)) [mg/L] | MIC [1] [µg/mL] | Compound | PBP1a acylation rate, k(on) (M^−1 · s^−1) (P. aeruginosa PBP1a) | PBP3 acylation rate, k(on) (M^−1 · s^−1) (P. aeruginosa PBP3)
1 | 8 to 16 (≈ 16.9 to 33.7 µM) | < 8 | 8 to 16 (≈ 16.9 to 33.7 µM) | > 16 | CN/C(=N\OCC(=O)NCCCCN)[C@@H]1c2c(cnn2C)[C@@H]2CN1C(=O)N2OS(=O)(=O)O (racemic) [Example 59] | ** (** represents a k(on) of 100 to 10,000 M^−1 · s^−1) | *** (*** represents a k(on) > 10,000 M^−1 · s^−1)
2 | 8 to 16 | 8 to 16 | 8 to 16 | > 16 | CN/C(=N\OC(=O)NCCNC(N)=O)[C@@H]1c2c(cnn2C)[C@@H]2CN1C(=O)N2OS(=O)(=O)O [Example 42, (4R,8S)-1-methyl-8-((Z)—N-methyl-N′-(((2-ureidoethyl)carbamoyl)oxy)carbamimidoyl)-6-oxo-4,8-dihydro-1H-4,7-methanopyrazolo[3,4-e][1,3]diazepin-5(6H)-yl hydrogen sulfate] | ** (** represents a k(on) of 100 to 10,000 M^−1 · s^−1) | *** (*** represents a k(on) > 10,000 M^−1 · s^−1)
3 | 8 to 16 | > 16 | > 16 | > 16 | CN/C(=N\OC(=O)NCCNC(C)=O)[C@@H]1c2c(cnn2C)[C@@H]2CN1C(=O)N2OS(=O)(=O)O [Example 44, (4R,8S)-8-((Z)—N′-(((2-acetamidoethyl)carbamoyl)oxy)-N-methylcarbamimidoyl)-1-methyl-6-oxo-4,8-dihydro-1H-4,7-methanopyrazolo[3,4-e][1,3]diazepin-5(6H)-yl hydrogen sulfate] | ** (** represents a k(on) of 100 to 10,000 M^−1 · s^−1) | *** (*** represents a k(on) > 10,000 M^−1 · s^−1)
4 | < 8 | > 16 | > 16 | > 16 | CN/C(=N\OC(=O)NCCCCNC(=O)C(F)(F)F)[C@@H]1c2c(cnn2C)[C@@H]2CN1C(=O)N2OS(=O)(=O)O [Example 45, (4R,8S)-1-methyl-8-((Z)—N-methyl-N′-(((4-(2,2,2-trifluoroacetamido)butyl)carbamoyl)oxy)carbamimidoyl)-6-oxo-4,8-dihydro-1H-4,7-methanopyrazolo[3,4-e][1,3]diazepin-5(6H)-yl hydrogen sulfate] | ** (** represents a k(on) of 100 to 10,000 M^−1 · s^−1) | *** (*** represents a k(on) > 10,000 M^−1 · s^−1)
5 | < 8 | 8 to 16 | > 16 | > 16 | CN/C(=N\O)[C@@H]1c2c(cnn2CCNC(C)=O)[C@@H]2CN1C(=O)N2OS(=O)(=O)O [Example 48, (4R,8S)-1-(2-acetamidoethyl)-8-((Z)—N′-hydroxy-N-methylcarbamimidoyl)-6-oxo-4,8-dihydro-1H-4,7-methanopyrazolo[3,4-e][1,3]diazepin-5(6H)-yl hydrogen sulfate] | * (* represents a k(on) < 100 M^−1 · s^−1) | *** (*** represents a k(on) > 10,000 M^−1 · s^−1)

Further lines, the molecule ahead of its results:

Row | Compound | MIC (E. coli (ATCC25922)) [mg/L] | MIC (P. aeruginosa WT (PAO1)) [µg/mL] | MIC (A. baumannii (ARC3495)) [mg/L] | MIC [1] [µg/mL] | PBP1a acylation rate, k(on) (M^−1 · s^−1) (P. aeruginosa PBP1a) | PBP3 acylation rate, k(on) (M^−1 · s^−1) (P. aeruginosa PBP3)
6 | CN/C(=N\OCC(=O)NCCN)[C@@H]1c2c(cnn2C)[C@@H]2CN1C(=O)N2OS(=O)(=O)O (racemic) [Example 58, (4R,8S)-8-((Z)—N′-(2-((2-aminoethyl)amino)-2-oxoethoxy)-N-methylcarbamimidoyl)-1-methyl-6-oxo-4,8-dihydro-1H-4,7-methanopyrazolo[3,4-e][1,3]diazepin-5(6H)-yl hydrogen sulfate] | 8 to 16 | < 8 | 8 to 16 | 8 to 16 | * (* represents a k(on) < 100 M^−1 · s^−1) | *** (*** represents a k(on) > 10,000 M^−1 · s^−1)
7 | CN/C(=N\OCC(=O)NCCCC[C@H](N)C(=O)O)[C@@H]1c2c(cnn2C)[C@@H]2CN1C(=O)N2OS(=O)(=O)O (racemic) [Example 60] | < 8 | 8 to 16 (≈ 15 to 30 µM) | > 16 | > 16 | * (* represents a k(on) < 100 M^−1 · s^−1) | *** (*** represents a k(on) > 10,000 M^−1 · s^−1)
8 | CN/C(=N\OCC(=O)NC1CNC1)[C@@H]1c2c(cnn2C)[C@@H]2CN1C(=O)N2OS(=O)(=O)O (racemic) [Example 61] | < 8 | 8 to 16 (≈ 17.4 to 34.9 µM) | > 16 | > 16 | * (* represents a k(on) < 100 M^−1 · s^−1) | ** (** represents a k(on) of 100 to 10,000 M^−1 · s^−1)
9 | CN(C(N)=O)/C(=N\OC(=O)NCCNC(N)=O)[C@@H]1c2c(cnn2C)[C@@H]2CN1C(=O)N2OS(=O)(=O)O [Example 43, (4R,8S)-8-((Z)—N-carbamoyl-N-methyl-N′-(((2-ureidoethyl)carbamoyl)oxy)carbamimidoyl)-1-methyl-6-oxo-4,8-dihydro-1H-4,7-methanopyrazolo[3,4-e][1,3]diazepin-5(6H)-yl hydrogen sulfate] | < 8 | > 16 | > 16 | > 16 | ** (** represents a k(on) of 100 to 10,000 M^−1 · s^−1) | *** (*** represents a k(on) > 10,000 M^−1 · s^−1)
10 | CN/C(=N\OS(N)(=O)=O)[C@@H]1c2c(cnn2C)[C@@H]2CN1C(=O)N2OS(=O)(=O)O [Example 46, (4R,8S)-1-methyl-8-((Z)—N-methyl-N′-(sulfamoyloxy)carbamimidoyl)-6-oxo-4,8-dihydro-1H-4,7-methanopyrazolo[3,4-e][1,3]diazepin-5(6H)-yl hydrogen sulfate] | 8 to 16 | 8 to 16 | > 16 | 8 to 16 | ** (** represents a k(on) of 100 to 10,000 M^−1 · s^−1) | *** (*** represents a k(on) > 10,000 M^−1 · s^−1)
11 | CN/C(=N\O)[C@@H]1c2c(cnn2CC(N)=O)[C@@H]2CN1C(=O)N2OS(=O)(=O)O [Example 50, (4R,8S)-1-(2-amino-2-oxoethyl)-8-((Z)—N′-hydroxy-N-methylcarbamimidoyl)-6-oxo-4,8-dihydro-1H-4,7-methanopyrazolo[3,4-e][1,3]diazepin-5(6H)-yl sulfate] | < 8 | < 8 | 8 to 16 | < 8 | ** (** represents a k(on) of 100 to 10,000 M^−1 · s^−1) | *** (*** represents a k(on) > 10,000 M^−1 · s^−1)
12 | CN/C(=N\OC(=O)NCc1cn(C)[n+](C)c1)[C@@H]1c2c(cnn2C)[C@@H]2CN1C(=O)N2OS(=O)(=O)O [Example 54, 1,2-dimethyl-4-((Z)-3-((4R,8S)-1-methyl-6-oxo-5-(sulfooxy)-4,5,6,8-tetrahydro-1H-4,7-methanopyrazolo[3,4-e][1,3]diazepin-8-yl)-6-oxo-5-oxa-2,4,7-triazaoct-3-en-8-yl)-1H-pyrazol-2-ium] | < 8 | 8 to 16 | > 16 | > 16 | * (* represents a k(on) < 100 M^−1 · s^−1) | *** (*** represents a k(on) > 10,000 M^−1 · s^−1)
